Assay results taken from paper PMC8126888 (RSC Medicinal Chemistry, 2020).
Read-outs that look alike come from different tables or passages of the source.

Key:
[1] = system: primary peritoneal mouse macrophages (PMM); conditions: PMM IC50 / L. infantum IC50
[2] = in vitro; conditions: Swiss, mouse
[3] = in vitro; conditions: human, microsomes, pH 7.4, HLM CLint, human liver microsomes
[4] = in vitro; conditions: mouse, microsomes, pH 7.4, MLM CLint, mouse liver microsomes
[5] = physchem; conditions: HPLC, Ascentis Express RP Amide column, pH 7.4, eLogD
[6] = in vitro; conditions: human
[7] = in vitro; conditions: PAMPA
[8] = system: Leishmania infantum MHOM/MA(BE)/67/ITMAP263 intracellular amastigotes; assay: microbe, parasite or virus in culture; conditions: Macrophage, in Mus musculus
[9] = system: Trypanosoma cruzi, Tulahuen CL2, beta-galactosidase strain; assay: microbe, parasite or virus in culture; conditions: MRC5, read-out: T. cruzi Tulahuen C4 (LacZ) IC50
[10] = system: primary peritoneal mouse macrophages (PMM); assay: cells; conditions: Macrophage, read-out: PMM IC50
[11] = in vitro; conditions: human, HFF-1 cells
[12] = in vitro; conditions: human, HepG2 cells
[13] = in vitro; conditions: PAMPA; remark: listed apart in the source
[14] = read-out: L. Inf. pIC50, from L. infantum intracellular amastigote IC50 (converted)
[15] = read-out: L. infantum MHOM/MA(BE)/67/ITMAP263 intracellular amastigotes IC50
[16] = read-out: L. infantum MHOM/MA(BE)/67/ITMAP263 intracellular amastigotes IC50, intracellular amastigotes

Structure (SMILES)	SI (vs PMM) [1]	IC50 [2] [µM]	microsomal CLint at 0.5 μM [3] [µL/min/mg]	microsomal CLint at 0.5 μM [4] [µL/min/mg]	chromatographic logD [5]	CC50 at 3 days [6] [µM]	Papp [7] [×10⁻⁶ cm/s]	IC50 [8, 14] [µM]	IC50 [8, 15] [µM]	IC50 [9] [µM]	IC50 [10] [µM]	CC50 [11] [µM]	CC50 [12] [µM]	IC50 [8, 16] [µM]	Papp [13] [×10⁻⁶ cm/s]
CC[C@H](Cc1ccccc1)S(=O)(=O)c1ccccc1OC [DNDI0003362003]	2	> 64	458	1060	3.5	> 64	19.8	34.7	34.6	31.7					
CCN(Cc1ccccc1)S(=O)(=O)c1ccccc1OC [DNDI0003363820]	6	> 64	406	1370	3.6	36.3	18.5	11	11	30.1					
COc1ccc(C#N)cc1S(=O)(=O)N(Cc1ccc(F)cc1)Cc1ccc(C#N)cc1 [DNDI0003371171]						> 64		33.1		30.4	> 64	> 64	> 64	33.2	
CC[C@H](Cc1ccccc1)[S+]([O-])c1ccccc1OC (some centres unmarked) [DNDI0003362001]	1	> 64	390	3620	3.7	> 64	9.42	52.5	52.5	31.5					
O=S(=O)(NCc1ccccc1)c1cc(F)ccc1F [DNDI0003365406]	1	> 64	75	260	3.2	> 64	30.4	49	49.4	> 64					
CCN(Cc1ccccc1)S(=O)(=O)c1ccccc1OC(F)(F)F [DNDI0003364252]	8	> 64	1180	2340	4.5	> 64	1.18	8.51	8.47	22.4					
CCC(Cc1ccccc1)[S+]([O-])c1nc(C)cc(C)c1C#N (centres unmarked) [DNDI0003297458]	1	> 64	1230	1560	3.2	> 64	13.4	47.9	47.6	> 64					
COc1ccc(OC)c(S(=O)(=O)N(Cc2ccc(F)cc2)c2ccc(F)cc2)c1 [DNDI0003371170]			417	703		> 64		11.2		15.1	> 64	30.7	23.3	11.3	1.83
CCN(Cc1ccccc1)S(=O)(=O)c1ccc(NC(C)=O)cc1 [DNDI0003364473]	1	> 64	205	398	3.5	> 64	13.6	> 64	> 64	33.1					
O=S(=O)(NCc1ccccc1)c1ccccc1 [DNDI0003363562]	1	> 64	50	161	2.9	> 64	21.6	> 64	> 64	> 64					
COc1ccc(S(C)(=O)=O)cc1S(=O)(=O)N(Cc1ccc(F)cc1)Cc1ccc(F)cc1 [DNDI0003371164]			296			> 64		1.29		22	> 64	24.3	41.7	1.28	2.57
CCN(Cc1ccccc1)S(=O)(=O)c1cc(F)ccc1N1CCCC1 [DNDI0003364614]	4	50.8	1470	3000	4.9	> 64	0.34	12.9	12.9	7.33					
CCN(Cc1ccccc1)S(=O)(=O)c1ccccc1C#N [DNDI0002574585]	2	> 64	306	1060	3.5	> 64	16.6	25.7	25.6	29.3					
COc1ccc(OC)c(S(=O)(=O)NCc2ccccc2)c1 [DNDI0003365408]	1	> 64	126	1250	2.8	> 64	16.8	> 64	> 64	> 64					
CCN(Cc1ccccc1)S(=O)(=O)c1ccccc1 [DNDI0003363563]	1	> 64	418	1180	3.8	> 64	7.54	> 64	> 64	32.1					
COCCN(Cc1ccccc1)S(=O)(=O)c1ccccc1 [DNDI0003363821]	2	> 64	239	2990	3.5	> 64	25.3	40.7	40.5	39.3					
CCN(Cc1ccccc1)S(=O)(=O)c1ccc(OC)cc1 [DNDI0003297130]	6	> 64	676	3010	3.9	> 64	7.68	11	11	18.5					
CCN(Cc1ccccc1)S(=O)(=O)c1cc(Cl)ccc1OC [DNDI0003364251]	12	> 64	304	1260	4.3	53.2	3.74	5.5	5.52	9.1					
